From EP4603105A1, “PHARMACEUTICAL COMPOSITION CONTAINING CYCLIC COMPOUND HAVING SELECTIVE KRAS INHIBITORY EFFECT AGAINST HRAS AND NRAS” (CHUGAI SEIYAKU KABUSHIKI KAISHA, priority 2022, dated 2024)
Where a SMILES comes first, the peptide text is derived from it. Bridges are numbered along the chain shown (N, C = ends). [ ]: non-standard residue; d: D form. The star is where a group is joined. hPhe(3-Cl-4-CF3) = N[C@@H](CCc1ccc(C(F)(F)F)c(Cl)c1)C(=O)O; NPrPhe(4-CF3) = CCCN[C@@H](Cc1ccc(C(F)(F)F)cc1)C(=O)O; NEtPhe(4-Me) = CCN[C@@H](Cc1ccc(C)cc1)C(=O)O; NMeGly(cPent) = CN[C@H](C(=O)O)C1CCCC1; Pro(4,4-F2) = O=C(O)[C@@H]1CC(F)(F)CN1; Ac4c(3,3-Me2) = CC1(C)CC(N)(C(=O)O)C1; NMeI = CC[C@H](C)[C@H](NC)C(=O)O; NMeD = CN[C@@H](CC(=O)O)C(=O)O; NMeL = CN[C@@H](CC(C)C)C(=O)O; NMeNva = CCC[C@H](NC)C(=O)O; Morpholide = C1CN(*)CCO1; NMeA = CN[C@@H](C)C(=O)O; Ac5c = NC1(C(=O)O)CCCC1; Aze = O=C(O)[C@@H]1CCN1; Sar = CNCC(=O)O

Tests used:
[1] = test system: human lung cancer strain NCI-H441; format: cell-based
Procedure, shortened: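 Signal came from […] measured per well once the reagent was added. Beforehand, cells were cultured at 37°C and 5% carbon dioxide on a compound series serially diluted in dimethyl sulfoxide.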

[2] = biological target: GDP-bound NRAS wild-type protein (Homo sapiens, UniProt P01111); test: Binding to NRAS by surface plasmon resonance (SPR), KD and KD ratio to KRAS
Procedure, shortened: (§1)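 Each cycle, GDP-bound biotin-Avi RAS was captured (~100–300 RU), compound concentrations were injected low to high for 75 s each at 100 µL/min, then the chip was regenerated. Buffer: HBS pH 7.4, 10 mM MgCl2, 10 µM GDP, 1 mM DTT, 4% DMSO; 30°C. KD from a 1:1 binding model.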

[3] = biological target: HRAS wild-type protein (Homo sapiens, UniProt P01112); test: Binding to HRAS by surface plasmon resonance (SPR), KD and KD ratio to KRAS
Procedure, shortened: as §1

[4] = ratio of the KD value with respect to GDP-bound NRAS wild-type protein to the KD value with respect to KRAS
[5] = ratio of the KD value with respect to HRAS wild-type protein to the KD value with respect to KRAS
[6] = ratio of KD for GDP-bound NRAS wild-type protein to KD for KRAS
[7] = ratio of KD for HRAS wild-type protein to KD for KRAS

Sequence of GDP-bound NRAS wild-type protein (P01111 whole entry): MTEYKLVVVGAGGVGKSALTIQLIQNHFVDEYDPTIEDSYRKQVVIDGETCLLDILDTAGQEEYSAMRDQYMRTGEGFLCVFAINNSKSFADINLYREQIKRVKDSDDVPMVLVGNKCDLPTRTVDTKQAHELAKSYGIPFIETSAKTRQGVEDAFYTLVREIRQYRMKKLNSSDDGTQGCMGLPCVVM
Sequence of HRAS wild-type protein (P01112 whole entry): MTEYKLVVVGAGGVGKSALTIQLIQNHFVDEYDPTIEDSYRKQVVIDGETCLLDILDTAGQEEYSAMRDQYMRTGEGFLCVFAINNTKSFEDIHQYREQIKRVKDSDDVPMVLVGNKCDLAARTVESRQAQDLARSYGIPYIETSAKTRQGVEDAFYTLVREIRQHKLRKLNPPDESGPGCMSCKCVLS

| SMILES | IC50 [1] [µM] | NRAS /KRAS [2, 4] | HRAS /KRAS [3, 5] | NRAS /KRAS ([2]; ratio of KD value for GDP-bound NRAS wild-type protein to KD value for KRAS (SPR)) | HRAS /KRAS ([3]; ratio of KD value for HRAS wild-type protein to KD value for KRAS (SPR)) | NRAS /KRAS [2, 6] | HRAS /KRAS [3, 7] |
| --- | --- | --- | --- | --- | --- | --- | --- |
| CCCN(C)C(=O)[C@@H]1CC(=O)N(C)[C@@H](C2CC2)C(=O)N[C@@H]([C@@H](C)CC)C(=O)N(C)CC(=O)N(C)[C@H]2C/C=C\CCN(C2=O)[C@@H](Cc2ccc(C(F)(F)F)cc2)C(=O)N(C)CC(=O)N[C@@H](CCc2ccc(C(F)(F)F)c(OC)c2)C(=O)N2C[C@@H](C)C[C@H]2C(=O)NC2(CCC2)C(=O)N(C)[C@@H](C2CCCC2)C(=O)N1C [PP2070] | 0.0113 | A (a compound having 10 or more and less than 20 is denoted as A) | A (a compound having 10 or more and less than 20 is denoted as A) | – | – | – | – |
| CCCN1C(=O)CN(C)C(=O)CN(C)C(=O)[C@H]([C@@H](C)OCC)NC(=O)[C@H](CC(C)C)N(C)C(=O)C[C@@H](C(=O)N2CCOCC2)N(C)C(=O)[C@H](C2CCCC2)N(C)C(=O)C2(CC(C)(C)C2)NC(=O)[C@@H]2CCCN2C(=O)[C@H](CCc2ccc(C(F)(F)F)c(Cl)c2)NC(=O)CN(C)C(=O)[C@@H]1Cc1ccc(C(F)(F)F)cc1 [PP1964] ([NMeL]T(Et)[Sar][Sar][NPrPhe(4-CF3)][Sar][hPhe(3-Cl-4-CF3)]P[Ac4c(3,3-Me2)][NMeGly(cPent)][NMeD]-Morpholide; lactam N-11) | 0.0103 | B (a compound having 3 or more and less than 10 is denoted as B) | B (a compound having 3 or more and less than 10 is denoted as B) | – | – | – | – |
| CC[C@H](C)[C@@H]1NC(=O)[C@H](CC(C)C)N(C)C(=O)C[C@@H](C(=O)N(C)C)N(C)C(=O)[C@H](C2CCCC2)N(C)C(=O)C2(CCC2)NC(=O)[C@@H]2[C@@H](OCC(F)F)CCN2C(=O)[C@H](CCc2cc(F)c(C(F)(F)F)c(F)c2)NC(=O)CN(C)C(=O)[C@H](Cc2ccc(C(F)(F)F)cc2)N2CC/C=C\C[C@@H](C2=O)N(C)C(=O)CN(C)C1=O [PP1534] | 0.0247 | – | – | AA (a compound having 20 or more is denoted as AA) | A (a compound having 10 or more and less than 20 is denoted as A) | – | – |
| CC[C@H](C)[C@@H]1NC(=O)[C@H](CC(C)C)N(C)C(=O)C[C@@H](C(=O)N2CCOCC2)N(C)C(=O)[C@H]([C@@H](C)CC)N(C)C(=O)C2(CCCC2)NC(=O)[C@@H]2CCCN2C(=O)[C@H](CCc2ccc(C(F)(F)F)c(Cl)c2)NC(=O)CN(C)C(=O)[C@H](Cc2ccc(C)cc2)N(CC)C(=O)CN(C)C(=O)CN(C)C1=O [PP0043] ([NMeL]I[Sar][Sar][NEtPhe(4-Me)][Sar][hPhe(3-Cl-4-CF3)]P[Ac5c][NMeI][NMeD]-Morpholide; lactam N-11) | 0.0204 | – | – | – | – | C (A compound having a KD ratio of 0.1 or more and less than 3 is denoted as C) | C (A compound having a KD ratio of 0.1 or more and less than 3 is denoted as C) |
| CCC[C@H]1C(=O)N[C@@H]([C@@H](C)CC)C(=O)N(C)[C@@H](C)C(=O)N2CC[C@H]2C(=O)N(CCC)[C@@H](Cc2ccc(C(F)(F)F)cc2)C(=O)N(C)CC(=O)N[C@@H](CCc2ccc(C(F)(F)F)c(Cl)c2)C(=O)N2CC(F)(F)C[C@H]2C(=O)NC2(CCCC2)C(=O)N(C)[C@@H](C2CCCC2)C(=O)N(C)[C@H](C(=O)N2CCOCC2)CC(=O)N1C [PP0205] ([NMeNva]I[NMeA][Aze][NPrPhe(4-CF3)][Sar][hPhe(3-Cl-4-CF3)][Pro(4,4-F2)][Ac5c][NMeGly(cPent)][NMeD]-Morpholide; lactam N-11) | 0.0046 | – | – | – | – | C (A compound having a KD ratio of 0.1 or more and less than 3 is denoted as C) | C (A compound having a KD ratio of 0.1 or more and less than 3 is denoted as C) |
